From USRE38352E1, “Polymerase chain reaction assays for monitoring antiviral therapy and making therapeutic decisions in the treatment of acquired immunodeficiency syndrome” (priority 1992, dated 2003)
Where “and” joins values, the source holds several entries; their conditions need not be identical. Identical values can stand only once. Like-named read-outs stand apart in the source and are kept apart here.

Legend:
[1] = test system: HIV virus stock from patient PBMC; experiment: AZT sensitivity assay (inhibition of P24 production in donor PBMC); type: cell-based; settings: Human immunodeficiency virus 1, PBMC
Description: Patient PBMC were cocultured with mitogen-stimulated PBMC from healthy HIV-seronegative donors. Supernatants from these cultures were collected and frozen when the HIV P24 antigen concentration exceeded 10,000 pg/ml. 30-100 TCID50 (50% tissue culture infectious dose) of virus stock was used to infect one million donor PBMC pretreated with different concentrations of AZT (0.0 μM, 0.005 μM, 0.05 μM, 0.5 μM, 5.0 μM). After 7 days, P24 antigen was measured in the cell free supernatant from the cultures with and without zidovudine. The concentration of AZT required to inhibit P24 production by 90% (IC90) as compared to the drug free cultures was determined by nonlinear regression analysis (Chou et al., 1984, Adv. Enzyme Regulation 22:27-55).
(§1) All comparisons between the patients with mutant and wild type strains were performed using the student's t-test. The calculations on the IC90s determined by the zidovudine sensitive assay were performed using the logl10 transformed IC90 (i.e., geometric means were used rather than arithmetic means).

CD4 cells = experiment: CD4 cell counts in long term AZT recipients related to codon 215 genotype; type: in vivo, human (HIV-infected patients); settings: for CD4 decline after serum mutation / mean decrease of CD4 cells after serum mutation: 19 patients; for mean CD4 count at the start of therapy: 26 patients who developed codon 215 mutation in serum
Description: Cryopreserved PBMC and serum from 40 participants in AIDS Clinical Trial Group (ACTG) protocols 019 (30 patients) and 016 (10 patients) at Stanford University Medical Center AIDS Clinical Trial Unit were used in this study. Patients at enrollment in these studies were AZT naive, had >200 CD4 cells/μl and had few (016) or no symptoms (019) referable to HIV infection. They were subsequently treated with AZT for 2 to 4 years. The most common dosage was 500 mg per day.
CD4 cell counts were obtained approximately every three months on each patient. All counts were performed at Stanford's ACTG-qualified cytofluorometry lab. Samples were stained with monoclonal antibodies to CD3, CD4, and CD8. The absolute CD4 count was calculated by multiplying the percent CD4 by the total lymphocyte count.
as §1

[2] = 11 patients wild type in serum over 34 months

## Cc1cn([C@H]2C[C@H](N=[N+]=[N-])[C@@H](CO)O2)c(=O)[nH]c1=O [AZT, zidovudine]
[1]; 168 h, isolates from AZT-naive patients, 7 days, read-out: IC90 (inhibition of P24 production by 90%), range
  IC90: 2 to 38 nM
[1]; nine patients with a mutation at codon 215, read-out: IC90 range
  IC90: 30 to 8000 nM
[1]; read-out: IC90 range, eight patients with wild type form at codon 215
  IC90: 20 to 280 nM
[1]; read-out: geometric mean IC90, eight patients with wild type form at codon 215, post-treatment PBMC
  IC90: 40 nM
[1]; read-out: geometric mean IC90, nine patients with a mutation at codon 215
  IC90: 410 nM
CD4 cells; [2]
  CD4 increase: 2%
  increase of CD4 cells: 7±92 CD4 cells/μl
CD4 cells; at 12 months
  CD4 decline after serum mutation: 40%
  mean decrease of CD4 cells after serum mutation: 170±121 CD4 cells/μl
CD4 cells; at six months
  CD4 decline after serum mutation: 25%
  mean decrease of CD4 cells after serum mutation: 100±116 CD4 cells/μl
CD4 cells; 21 patients wild type at codon 215
  mean increase in absolute CD4 count, start of therapy to end of study: 11%
CD4 cells; 21 patients wildtype at codon 215 in PBMC
  Starting absolute CD4: 397 cells/μl and 397 ± 124 cells/μl
CD4 cells; 26 patients
  mean CD4 count at first detection of codon 215 mutation in serum: 444±206 cells/μl and 444 cells/μl
CD4 cells
  mean CD4 count at the start of therapy: 398±139 cells/μl and 398 cells/μl
CD4 cells; listed as zidovudine
  mean CD4 count at the start of therapy: 398±139 cells/μl
CD4 cells; patients who remained wild type in serum
  starting CD4 count: 397±115 cells/μl
CD4 cells; wildtype at codon 215 in PBMC
  CD4 % at time of PCR analysis: 25% and 25 ± 9%
  Starting CD4 %: 26 ± 8%
CD4 cells; wildtype at codon 215 in PBMC, 33 ± 8 months of AZT
  Absolute CD4 at time of PCR analysis: 424 cell/μl and 424 ± 210 cell/μl
CD4 cells; {}
  Starting CD4 %: 25 ± 6%
  decrease in absolute CD4 count, start of therapy to end of study: 50%
